The values below come from patent publication US8916526B2, “Flavanone derivative” (National University Corporation Okayama University, priority 2009, dated 2014).

Molecules are shown by their SMILES. Converted amounts (≈) assume the structure as drawn.

For assay [1], the system named is Methicillin-resistant S. aureus OM584. The assay is described as follows: In vitro infectivity assay (MIC), Exp. Ex. 2-1. In kind it is cell-based, Staphylococcus aureus. The following applies: Staphylococcus aureus, MRSA; Gram-positive; microdilution, MIC after 24 h; read-out: MIC MRSA OM584. In a few lines: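 CLSI broth microdilution in Mueller-Hinton broth with 0.85% NaCl, inoculum about 10^5 CUF/[…]. MIC read after 24 h at 35° C; each determination run three times.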
On the technique in general: Dilution methods test growth across graded concentrations, often in twofold steps.

In assay [2] the test system is VRE NCTC12201. Put plainly: In vitro infectivity assay (MIC), broth dilution, Exp. Ex. 1-1. The assay is classed as cell-based, enterococci. The following applies: Enterococcus; VRE NCTC12201; Mueller-Hinton broth, 35° C., 24 hours; read-out: MIC VRE NCTC12201. In a few lines:
(§1)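 CLSI broth dilution, inoculum about 10^5 CUF/[…] in Mueller-Hinton broth with 0.85% NaCl, 24 h at 35° C.; MIC measured three times. Strains included clinical MRSA isolates, MRSA N315, VISA Mu50, MSSA FDA 209P and VRE NCTC 12201 and FN-1.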

The test system of assay [3] is VRE FN-1. The description is as above. In kind it is cell-based, enterococci. As to conditions: Enterococcus; VRE FN-1; Mueller-Hinton broth, 35° C., 24 hours; read-out: MIC VRE FN-1. In a few lines:
as §1

Assay [4] relates to MRSA N315. The description is as above. The assay is classed as cell-based, Staphylococcus aureus. The following applies: Staphylococcus aureus; MRSA N315; Mueller-Hinton broth, 35° C., 24 hours; read-out: MIC MRSA N315. In a few lines:
as §1

Assay [5] has as its system MSSA FDA 209P. The assay is described as above. The assay is classed as cell-based, Staphylococcus aureus. The following applies: Staphylococcus aureus; MSSA FDA 209P; Mueller-Hinton broth, 35° C., 24 hours; read-out: MIC MSS 209P. The procedure, abridged: as §1
Assay [6] has as its system VISA Mu50. The description is as above. The assay is classed as cell-based, Staphylococcus aureus. The following applies: Staphylococcus aureus; VISA Mu50; Mueller-Hinton broth, 35° C., 24 hours; read-out: MIC VISA Mu50. The procedure, abridged: as §1
The test system of assay [7] is MRSA OM481. The assay is described as above. The assay is classed as cell-based, Staphylococcus aureus. The following applies: Staphylococcus aureus; MRSA OM481; Mueller-Hinton broth, 35° C., 24 hours; read-out: MIC MRSA OM481. In a few lines:
as §1

Assay [8] deals with MRSA OM58. The description is as above. The assay is classed as cell-based, Staphylococcus aureus. The following applies: Staphylococcus aureus; MRSA OM58; Mueller-Hinton broth, 35° C., 24 hours; read-out: MIC MRSA OM58. The procedure, abridged: as §1
For assay [9], the system named is Escherichia coli K-12. The assay is described as follows: Antibacterial activity (MIC) against Gram-negative strains, microdilution. The assay is classed as cell-based. As to conditions: K12, MIC after 24 h, read-out: MIC (Gram-nagative) K-12. In a few lines: (§2)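 CLSI broth microdilution in Mueller-Hinton broth with 0.85% NaCl, inoculum about 10^5 […]. Incubated 35° C for 24 hours; MIC taken as the minimum inhibitory concentration, measured three times.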

The subject of assay [10] is Pseodomonas aeruginosa PAOI. Described as above. In kind it is cell-based. The following applies: MIC after 24 h, read-out: MIC (Gram-nagative) PAO1. The procedure, abridged:
as §2

Consider `O=c1c(O)c(-c2ccc(O)c(O)c2)oc2cc(O)cc(O)c12` [Quercetin, quercetin, reference compound], for which the minimal inhibitory concentration (MIC) in assay [1], in assay [2], in assay [3], in [4], in assay [5] and in assay [6] was > 128 µg/mL throughout. The minimal inhibitory concentration (MIC) was > 128 µg/mL in assay [7], > 128 µg/mL in assay [8], 64 µg/mL (≈ 212 µM) in assay [9] and > 128 µg/mL in assay [10].

A word on the MIC: it is the lowest concentration that inhibits growth of the organism.
